Source: US8088941B2, “Glycogen synthase kinase-3 inhibitors” (Tel Aviv University Future Technology Development L.P., priority 2001, dated 2012)
Counter-ions that a name gives are not always drawn. Like-named read-outs stand apart in the source and are kept apart here.

Experiments:
[1] = target: T1, recombinant rabbit GSK-3β (Oryctolagus cuniculus, UniProt G1T8E2); test: In vitro GSK-3 inhibition assay with PGS-1 peptide substrate; type: biochemical; conditions: for GSK-3 inhibition activity: preliminary inhibition assay, FIG. 5
T1 sequence (G1T8E2 1-432): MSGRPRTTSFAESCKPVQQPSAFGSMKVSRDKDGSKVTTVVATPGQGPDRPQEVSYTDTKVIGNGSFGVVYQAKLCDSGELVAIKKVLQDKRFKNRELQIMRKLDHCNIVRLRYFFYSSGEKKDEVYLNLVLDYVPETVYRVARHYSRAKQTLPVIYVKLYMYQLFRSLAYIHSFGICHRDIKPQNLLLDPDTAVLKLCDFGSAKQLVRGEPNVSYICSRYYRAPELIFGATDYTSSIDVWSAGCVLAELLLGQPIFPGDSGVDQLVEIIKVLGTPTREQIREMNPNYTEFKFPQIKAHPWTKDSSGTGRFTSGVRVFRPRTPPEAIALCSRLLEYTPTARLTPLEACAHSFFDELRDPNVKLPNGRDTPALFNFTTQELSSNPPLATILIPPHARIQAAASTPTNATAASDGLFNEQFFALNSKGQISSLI
Description: (§1) In vitro inhibition assays: Purified recombinant rabbit GSK-3β (Eldar-Finkelman et al., 1996) was incubated with peptide substrate PGS-1 ([…](p)EDEEE) (SEQ ID NO:1) or peptide substrate p9CREB (SEQ ID NO:2) and with phenyl phosphate, pyridoxal phosphate (P-5-P), GSC-1, GSC-2, GSC-3, GSC-4, GSC-5, GSC-6, GSC-7 or GSC-21 (structural formulas are depicted in FIG. 3), at indicated concentrations. The reaction mixture included Tris 50 mM (pH=7.3), 10 mM MgAc, ^32P[γ-ATP] (100 μM), 0.01% β-mercaptoethanol, and was incubated for 10 minutes at 30° C. Reactions were spotted on phosphocellulose paper (p81), washed with 100 mM phosphoric acid, and counted for radioactivity (as described in Eldar-Finkelman et al., 1996).
In vitro inhibition assays: In a preliminary inhibition assay, the GSK-3 inhibition activity of the known compounds phenyl phosphate, pyridoxal phosphate, GSC-1, GSC-2 and GSC-3 was tested as described hereinabove.
(§2) In an additional inhibition assay, the GSK-3 inhibition activity of GSC-1, GSC-2, GSC-3, GSC-4, and GSC-21 was tested. The ability of GSK-3 to phosphorylate PGS-1 peptide substrate was measured in the presence of indicated concentrations of these compounds. The results, presented in FIG. 6, represent the percentage of GSK-3 activity as compared with a control incubation without inhibitors and are mean of 2 independent experiments±SEM, where each point was assayed in triplicate.

Mice adipocytes = test: Glucose uptake in isolated adipocytes; type: cell-based; conditions: mouse primary adipocytes, 2.5 hours
Description: Glucose uptake in isolated adipocytes: Mice adipocytes were isolated from epididymal fat pad by digestion with 0.8 mg/ml collagenase (Worthington Biochemical) as described previously (Lawrence et al., 1977). Digested fat pads were passed through nylon mesh and cells were washed 3 times with Krebs-bicarbonate buffer (pH=7.4) containing 1% bovine serum albumin (Fraction V, Boehringer Mannheim, Germany), 10 mM HEPES (pH=7.3), 5 mM glucose and 200 nM adenosine. Cells were incubated with GSC-4 and GSC-21 at indicated concentrations for 2.5 hours, followed by addition of 2-deoxy [^3H] glucose (0.5 μci/vial) for 10 minutes. The assay was terminated by centrifugation of cells through dinonylphthalate (ICN, USA). ^3H was thereafter quantitated by liquid scintillation analyzer (Packard). Nonspecific uptake of 2-deoxy-[^3H] glucose was determined by the addition of cytochalasin B (50 μM) 30 minutes prior to the addition of radioactive material.
Glucose Uptake: The ability of the newly designed compounds GSC-4 and GSC-21 to promote glucose uptake was tested in mouse primary adipocytes as described hereinabove. The relative [^3H] 2-deoxy glucose incorporation observed in non-treated adipocytes was normalized to 1 unit and the values obtained for [^3H] 2-deoxy glucose in adipocytes treated with GSC-4 or GSC-21 are presented as fold activation over cells treated with the peptide control, and are the mean of 6 independent experiments±SEM, where each point was assayed in triplicate.

[2] = target: T1, recombinant rabbit GSK-3β; test: In vitro GSK-3 inhibition assay with p9CREB peptide substrate; type: biochemical
Description: as §1
as §2, with “In still” for “In”, “additional” for “additional inhibition”, “GSC-4, GSC-5, GSC-6,” for “GSC-4,”, “GSC-7” for “GSC-21”, “p9CREB” for “PGS-1”, “FIGS. 7a and 7b,” for “FIG. 6,”
The kinetic nature of the inhibitors was studied by measuring the initial velocity as a function of the substrate concentration at several inhibitor concentrations. Lineweaver-Burk plots of the GSK-3 inhibition by these inhibitors confirmed the assumption that these are substrate-competitive inhibitors (data not shown). FIG. 8 presents the Lineweaver-Burk plot of the GSK-3 inhibition by gsc-7, as an exemplary inhibitor, represented by phosphate incorporation into p9CREB peptide substrate (CPM). […] Each point is a mean of duplicated sample.
The ability of GSK-3 to phosphorylate p9CREB peptide substrate was measured in the presence of indicated concentrations of MP molecules, using the protocol described hereinabove in Example 3. The results, presented in FIG. 19, represent the percentage of GSK-3 activity in control incubation in which inhibitors were omitted. Results are mean of 2 independent experiments±SEM, where each point was assayed in duplicate.

CDK-2 = CDK-2 (Homo sapiens, UniProt P24941); test: CDK-2 kinase activity with histone H1 substrate (selectivity); type: biochemical; conditions: final concentration of 2 mM, FIG. 9
Description: The effect of GSC-4, GSC-5 and GSC-7 (100 and 200 μM) on other protein kinases was tested by incubating CDK-2 (1 unit) with a reaction mixture similar to that described hereinabove and containing histone H1 substrate (5 μg). The reactions were boiled with SDS sample buffer, separated on gel electrophoresis and autoradiographed.
The selectivity of the novel compounds towards GSK-3 was measured by evaluating the inhibition of CDK-2, a kinase closely related to GSK-3. Thus, CDK-2 activity was assayed in the presence of ^32P[γ-ATP] and histone H1 as a substrate. GSC-4, GSC-5 and GSC-7 were added at a final concentration of 2 mM.

glycogen synthase = test: Activation of glycogen synthase in C2C12 cells; type: cell-based; conditions: 2.5 hours, FIG. 10
Description: Activation of glycogen synthase by GSK-3 inhibitors: Activation of glycogen synthase can serve as a good marker for inhibition of GSK-3. […] Thus, activation of glycogen synthase by GSC-5 and GSC-7 was tested in C2C12 myotubes. C2C12 cells were treated with GSC-5 and GSC-7 for 2.5 hours at indicated concentrations and lysate supernatants were thereafter assayed for glycogen synthase activity. The activity of glycogen synthase in cells treated with vehicle DMSO (0.1% DMSO) was normalized to 1 unit and the values for glycogen synthase activity observed in cells treated with GSK-3 inhibitors are presented as fold stimulation over the cells treated with vehicle […].
Activation of glycogen synthase by GSK-3 inhibitors: Activation of glycogen synthase activity in C2C12 cells treated with GSC-5 and GSC-7 was assayed as described hereinabove. The activity of glycogen synthase in cells treated with vehicle DMSO (0.1% DMSO) was normalized to 1 unit and the values for glycogen synthase activity observed in cells treated with GSK-3 (GS4 (hollow circles) GS6 (filled circles) are presented as fold stimulation over the cells treated with vehicle 0.1% HCL.

GSK-3 = GSK-3 (Oryctolagus cuniculus, UniProt A0A5F9DUX8); test: Time course analyses of peptide phosphorylation by GSK-3; type: biochemical
GSK-3, sequence (A0A5F9DUX8 entry or part of it): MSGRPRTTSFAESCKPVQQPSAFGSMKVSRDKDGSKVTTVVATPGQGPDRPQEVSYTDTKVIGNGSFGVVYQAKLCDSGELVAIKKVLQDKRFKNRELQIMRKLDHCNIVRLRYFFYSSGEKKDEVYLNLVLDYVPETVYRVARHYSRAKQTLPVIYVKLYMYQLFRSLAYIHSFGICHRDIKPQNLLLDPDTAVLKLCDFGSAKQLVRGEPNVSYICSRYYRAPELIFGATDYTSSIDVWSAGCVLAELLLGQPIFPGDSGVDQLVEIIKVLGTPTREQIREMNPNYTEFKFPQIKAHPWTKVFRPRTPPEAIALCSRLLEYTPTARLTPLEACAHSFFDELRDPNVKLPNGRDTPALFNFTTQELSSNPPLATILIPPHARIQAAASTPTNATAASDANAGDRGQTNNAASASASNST

[3] = MP molecules, p9CREB peptide substrate, FIG. 19

`Cc1ccc(COP(=O)(O)O)cc1` [GSC-2, p-methyl benzyl phosphate] was tested, and the GSK-3 inhibition activity [1] was “exerted an inhibition activity”.

For `N=C(N)Nc1cccc(COP(=O)(O)O)c1` [GSC-4, 3-guanidinobenzyl phosphate], the “Glucose uptake ([3H] 2-deoxy glucose incorporation), fold activation” value (“Glucose uptake … fold activation” below) (Mice adipocytes; 10 μM) was about 2 fold, the “GSK-3 inhibition activity (ranking)” value ([1]; PGS-1 peptide substrate, FIG. 6) was “most active compounds” and the IC50 ([2]; p9CREB peptide substrate, FIGS. 7a-b, most active compounds) was 500 µM. The “Inhibition of histone H1 phosphorylation by CDK-2” value (“Inhibition … by CDK-2” below) (CDK-2) was “no inhibition of histone H1 phosphorylation was observed”.

For `N=C(N)NCc1cccc(COP(=O)(O)O)c1` [GSC-5, 3-(guanidinomethy)benzyl phosphate], the “Glycogen synthase activity, fold stimulation over vehicle” value (glycogen synthase) was 1.5 fold and the “Inhibition … by CDK-2” value (CDK-2) was “no inhibition of histone H1 phosphorylation was observed”.

For `N=C(N)Nc1cc(COP(=O)(O)O)cc(NC(=N)N)c1` [GSC-7, 3,5-bisguanidino benzyl phosphate], the “Glycogen synthase activity, fold stimulation over vehicle” value (glycogen synthase) was 1.8 fold, the IC50 [2] was 500 µM and the “Kinetic nature of inhibition (Lineweaver-Burk plot)” value ([2]; phosphate incorporation into p9CREB, FIG. 8) was “competitive specific inhibitor”. The “Inhibition … by CDK-2” value (CDK-2) was “no inhibition of histone H1 phosphorylation was observed”.

In the case of `NCCc1cc(CCN)cc(COP(=O)(O)O)c1` [GSC-21, 3,5-bis(2-aminoethyl)benzyl phosphate], the “Glucose uptake … fold activation” value (Mice adipocytes; 0.5 μM) is reported as 1.7 fold and the “Glucose uptake … fold activation” value (Mice adipocytes; 5 μM) is reported as 2.5 fold.

In the case of `N=C(N)Nc1cccc(-c2cn(-c3cccc(COP(=O)(O)O)c3)nn2)c1` [MP-1, 3-(4-(3-guanidinophenyl)-1,2,3-triazol-1-yl)benzyl phosphoric acid hydrochloride], the IC50 [2, 3] is reported as about 1000 µM.

With `N=C(N)Nc1ccc(-c2cn(-c3cccc(COP(=O)(O)O)c3)nn2)cc1` [MP-4, 3-(4-(4-guanidinophenyl)-1,2,3-triazol-1-yl)benzyl phosphoric acid hydrochloride] the IC50 [2, 3] was about 1000 µM.

For `O=P(O)(O)Oc1ccccc1` [phenyl phosphate, reference compound], the GSK-3 inhibition activity [1] was “exerted an inhibition activity”.

With `Cc1ncc(COP(=O)(O)O)c(C=O)c1O` [pyridoxal phosphate, reference compound] the GSK-3 inhibition activity [1] was “exerted an inhibition activity”.

In the case of ILSRRPEYR [9ECREB], the “Phosphorylation of peptide by GSK-3 (substrate)” value (GSK-3) is reported as “completely failed to be phosphorylated”.

With ILSRRPSYR [9CREB] the “Phosphorylation of peptide by GSK-3 (substrate)” value (GSK-3) was “completely failed to be phosphorylated”.
